Values after ≈ are worked out from the molar mass of the structure shown.
How the values were obtained:
[1] = tested on: S. aureus strain ATCC BAA-42 MRSA; conditions: all agents 5 μg/ml
[2] = tested on: Staphylococcus epidermidis MSSE strain (21); assay: In vitro antibacterial activity (MIC), clinical isolates; assay type: cell-based; conditions: Staphylococcus epidermidis, 21 MSSE clinical isolates
Protocol: (§1) The following experiments were performed by Lab. of Pharmacology, National Sichuan antibiotic industril institute, Chengdu, Sichuan.
(§2) The following agents were used to test the in vitro activity of Ph-SA:
(§3) All the bacterial strains used in the experiments were clinical isolates collected from Sichuan and Beijing in 2002 and identified by West China Hospital, Sichuan University and Chongqing University of Medical Sciences with API system. The following strains were used in the experiments detailed below: Staphylococcus aureus 168 strains (MRSA 80 strains and MSSA 88 strains) Staphylococcus epidermidis 46 strains (MRSE 25 strains and MSSE 21 strains), Enterococcus 20 strains, and Acenetobactor 20 strains. Staphylococcus aureus ATCC25923, 29213 and BAA-42 were used as control strains. Bacterial strains were contacted with one of the above described compounds and MIC50, MIC90 and MICScope were determined.

[3] = tested on: Staphylococcus aureus MSSA strain (88); assay: as above; assay type: cell-based; conditions: Staphylococcus aureus, 88 MSSA clinical isolates
Protocol: as §1, §2, §3

[4] = tested on: Staphylococcus aureus MRSA strain (80); assay: as above; assay type: cell-based; conditions: Staphylococcus aureus, MRSA
Protocol: as §1, §2, §3

[5] = tested on: Staphylococcus epidermidis MRSE strain (25); assay: as above; assay type: cell-based; conditions: Staphylococcus epidermidis, MRSE
Protocol: as §1, §2, §3

Enterococcus (20) = assay: as above; assay type: cell-based; conditions: 20 Enterococcus clinical isolates
Protocol: as §1, §2, §3

Acenetobactor (20) = assay: as above; assay type: cell-based
Protocol: as §1, §2, §3

[6] = tested on: ATCC 700671 PRSP (S. pneumoniae); assay: In vivo protection effects of Ph-SP; parameters: species or system mice; conditions: 5 animals
Protocol: To assess the in vivo effect of Ph-SP, mice were injected with ATCC 700671 PRSP intraperitoneally, followed by intravenous injections of PH-SP or controls.
One hour after administration of the fatal dose of ATCC 700671 PRSP (10^5 CFU/ml), each mouse was injected through the tail vein with test agents at three dosages as described in Table 4.

Q: How did the inhibition of growth [1] turn out when `Cc1onc(-c2ccccc2)c1C(=O)N[C@@H]1C(=O)N2[C@@H]1SC(C)(C)[C@@H]2C(=O)O` [Oxacillin, oxacillin] was run?
A: did not inhibit the growth

Q: What about the MIC [2] of the same molecule?
A: 0.015 to 0.25 mg/L (≈ 0.0374 to 0.623 µM)

Q: And the MIC50 ([2]; read-out: MIC50)?
A: 0.03 mg/L (≈ 0.0747 µM)

Q: And the MIC90 ([2]; read-out: MIC90)?
A: 0.25 mg/L (≈ 0.623 µM)

Q: What about the MIC50 ([3]; read-out: MIC50) of the same molecule?
A: 0.125 mg/L (≈ 0.311 µM)

Q: And the MIC90 ([3]; read-out: MIC90)?
A: 0.125 mg/L (≈ 0.311 µM)

Q: What about the MIC ([3]; read-out: MIC Scope) of the same molecule?
A: 0.015 to 0.25 mg/L (≈ 0.0374 to 0.623 µM)

Q: What about the MIC50 [4] of the same molecule?
A: > 128 mg/L

Q: What about the MIC90 [4] of the same molecule?
A: > 128 mg/L

Q: And the MIC ([4]; read-out: MIC Scope)?
A: 0.5 to 128 mg/L (≈ 1.25 to 319 µM)

Q: What about the MIC50 [5] of the same molecule?
A: 64 mg/L (≈ 159 µM)

Q: What about the MIC90 [5] of the same molecule?
A: > 128 mg/L

Q: And the MIC50 (Enterococcus (20); read-out: MIC50)?
A: 16 mg/L (≈ 39.9 µM)

Q: And the MIC90 (Enterococcus (20); read-out: MIC90)?
A: > 128 mg/L

Q: And the MIC50 (Acenetobactor (20))?
A: > 128 mg/L

Q: And the MIC90 (Acenetobactor (20))?
A: > 128 mg/L

Q: What about the MIC (Acenetobactor (20); read-out: MIC Scope) of the same molecule?
A: > 128 mg/L

Q: Which “Death distribution in hours 24 h” value ([6]; 5 mg/kg tail vein) does the source give for cephalomycin here?
A: 3

Q: And the “Death distribution in hours 48 h” value ([6]; 5 mg/kg tail vein)?
A: 1

Q: What about the “Death distribution in hours 72 h” value ([6]; 5 mg/kg tail vein) of the same molecule?
A: 0

Q: And the “Death distribution in hours 96 h” value ([6]; 5 mg/kg tail vein)?
A: 0

Q: And the “Death distribution in hours 120 h” value ([6]; 5 mg/kg tail vein)?
A: 0

Q: What about the “Death distribution in hours 144 h” value ([6]; 5 mg/kg tail vein) of the same molecule?
A: 0

Q: And the “Death distribution in hours 168 h” value ([6]; 5 mg/kg tail vein)?
A: 0

Q: What about the “Number of Death” value ([6]; 5 mg/kg tail vein) of the same molecule?
A: 4

Q: What about the “Death distribution in hours 24 h” value ([6]; 10 mg/kg tail vein) of the same molecule?
A: 2

Q: And the “Death distribution in hours 48 h” value ([6]; 10 mg/kg tail vein)?
A: 1

Q: What about the “Death distribution in hours 72 h” value ([6]; 10 mg/kg tail vein) of the same molecule?
A: 0

Q: And the “Death distribution in hours 96 h” value ([6]; 10 mg/kg tail vein)?
A: 0

Q: What about the “Death distribution in hours 120 h” value ([6]; 10 mg/kg tail vein) of the same molecule?
A: 0

Q: And the “Death distribution in hours 144 h” value ([6]; 10 mg/kg tail vein)?
A: 0

Q: What about the “Death distribution in hours 168 h” value ([6]; 10 mg/kg tail vein) of the same molecule?
A: 0

Q: And the “Number of Death” value ([6]; 10 mg/kg tail vein)?
A: 3

B1: Ph-SA2: Colicin Ia linked to the AgrDII pheromone of S. aureus (protein)
chain: SDPVRITNPGAESLGYDSDGHEIMAVDIYVNPPRVDVFHGTPPAWSSFGNKTIWGGNEWVDDSPTRSDIEKRDKEITAYKNTLSAQQKENENKRTEAGKRLSAAIAAREKDENTLKTLRAGNADAADITRQEFRLLQAELREYGFRTEIAGYDALRLHTESRMLFADADSLRISPREARSLIEQAEKRQKDAQNADKKAADMLAEYERRKGILDTRLSELEKNGGAALAVLDAQQARLLGQQTRNDRAISEARNKLSSVTESLNTARNALTRAEQQLTQQKNTPDGKTIVSPEKFPGRSSTNHSIVVSGDPRFAGTIKITTSAVIDNRANLNYLLSHSGLDYKRNILNDRNPVVTEDVEGDKKIYNAEVAEWDKLRQRLLDARNKITSAESAVNSARNNLSARTNEQKHANDALNALLKEKENIRNQLSGINQKIAEEKRKQDELKATKDAINFTTEFLKSVSEKYGAKAEQLAREMAGQAKGKKIRNVEEALKTYEKYRADINKKINAKDRAAIAAALESVKLSDISSNLNRFSRGLGYAGKFTSLADWITEFGKAVRTENWRPLFVKTETIIAGNAATALVALVFSILTGSALGIIGYGLLMAVTGALIDESLVEKANKFWGIGVNACSSLF
modifications: Colicin attached to Pheromone peptide encoding Staphylococcus aureus AgrDII
Q: For B1, which inhibition of growth [1] is on record?
A: some inhibition effects

B2: Ph-SE: Colicin Ia linked to the pheromone of S. epidermidis (protein)
chain: SDPVARGITNPGAESLGYDSDGHEIMAVASPIYVASNPPRVASPVFHGTPPAWSSFGNKTIWGGNEWVASPDSPTRSDIEKRDKEITAYKNTLSAQQKENENKRTEAGKRLSAAIAAREKDENTLKTLRAGNADAADITRQEFRLLQAELREYGFRTEIAGYDALRLHTESRMLFADADSLRISPREARSLIEQAEKRQKDAQNADKKAADMLAEYERRKGILDTRLSELEKNGGAALAVLDAQQARLLGQQTRNDRAISEARNKLSSVTESLNTARNALTRAEQQLTQQKNTPDGKTIVSPEKFPGRSSTNHSIVVSGDPRFAGTIKITTSAVIDNRANLNYLLSHSGLDYKRNILNDRNPVVTEDVEGDKKIYNAEVALAEWDKLRQRLLDARNKITSAESAVASNSARNNLSARTNEQKHANDALNALLKEKENIRNQLSGINQKIAEEKRKQDELKATKDAINFTTEFLKSVSEKYGAKAEQLAREMAGQAKGKKIRNVEEALKTYEKYRADINKKINAKDRAAIAAALESVKLSDISSNLNRFSRGLGYAGKFTSLADWITEFGKAVARGTENWRPLFVKTETIIAGNAATALVALALVFSILTGSALGIIGYGLLMAVTGALIDESLVEKANKFWGIDSVCASYF
modifications: Colicin Ia attached to Pheromone peptide from Staphylococcus epidermidis
Q: B2 was tested. Which inhibition of growth [1] did it give?
A: better effects

B3: Ph-SA4: Colicin Ia linked to the AgrDIV pheromone of S. aureus (protein)
chain: SDPVRITNPGAESLGYDSDGHEIMAVDIYVNPPRVDVFHGTPPAWSSFGNKTIWGGNEWVDDSPTRSDIEKRDKEITAYKNTLSAQQKENENKRTEAGKRLSAAIAAREKDENTLKTLRAGNADAADITRQEFRLLQAELREYGFRTEIAGYDALRLHTESRMLFADADSLRISPREARSLIEQAEKRQKDAQNADKKAADMLAEYERRKGILDTRLSELEKNGGAALAVLDAQQARLLGQQTRNDRAISEARNKLSSVTESLNTARNALTRAEQQLTQQKNTPDGKTIVSPEKFPGRSSTNHSIVVSGDPRFAGTIKITTSAVIDNRANLNYLLSHSGLDYKRNILNDRNPVVTEDVEGDKKIYNAEVAEWDKLRQRLLDARNKITSAESAVNSARNNLSARTNEQKHANDALNALLKEKENIRNQLSGINQKIAEEKRKQDELKATKDAINFTTEFLKSVSEKYGAKAEQLAREMAGQAKGKKIRNVEEALKTYEKYRADINKKINAKDRAAIAAALESVKLSDISSNLNRFSRGLGYAGKFTSLADWITEFGKAVRTENWRPLFVKTETIIAGNAATALVALVFSILTGSALGIIGYGLLMAVTGALIDESLVEKANKFWGIYSTCYFIM
modifications: Colicin attached to Pheromone peptide encoding Staphylococcus aureus AgrDIV
Q: With B3 as the molecule, how does the inhibition of growth [1] read?
A: best inhibitory effects

B4: Ph-SA3: Colicin Ia linked to the AgrDIII pheromone of S. aureus (protein)
chain: SDPVRITNPGAESLGYDSDGHEIMAVDIYVNPPRVDVFHGTPPAWSSFGNKTIWGGNEWVDDSPTRSDIEKRDKEITAYKNTLSAQQKENENKRTEAGKRLSAAIAAREKDENTLKTLRAGNADAADITRQEFRLLQAELREYGFRTEIAGYDALRLHTESRMLFADADSLRISPREARSLIEQAEKRQKDAQNADKKAADMLAEYERRKGILDTRLSELEKNGGAALAVLDAQQARLLGQQTRNDRAISEARNKLSSVTESLNTARNALTRAEQQLTQQKNTPDGKTIVSPEKFPGRSSTNHSIVVSGDPRFAGTIKITTSAVIDNRANLNYLLSHSGLDYKRNILNDRNPVVTEDVEGDKKIYNAEVAEWDKLRQRLLDARNKITSAESAVNSARNNLSARTNEQKHANDALNALLKEKENIRNQLSGINQKIAEEKRKQDELKATKDAINFTTEFLKSVSEKYGAKAEQLAREMAGQAKGKKIRNVEEALKTYEKYRADINKKINAKDRAAIAAALESVKLSDISSNLNRFSRGLGYAGKFTSLADWITEFGKAVRTENWRPLFVKTETIIAGNAATALVALVFSILTGSALGIIGYGLLMAVTGALIDESLVEKANKFWGIYINCDFLL
modifications: Colicin attached to Pheromone peptide encoding Staphylococcus aureus AgrDIII
Q: Which inhibition of growth [1] does the source give for B4 here?
A: some inhibition effects

B5: Ph-SAR1: the AgrDI pheromone of S. aureus linked to the N-terminus of Colicin Ia (protein)
chain: YSTCDFIMSDPVRITNPGAESLGYDSDGHEIMAVDIYVNPPRVDVFHGTPPAWSSFGNKTIWGGNEWVDDSPTRSDIEKRDKEITAYKNTLSAQQKENENKRTEAGKRLSAAIAAREKDENTLKTLRAGNADAADITRQEFRLLQAELREYGFRTEIAGYDALRLHTESRMLFADADSLRISPREARSLIEQAEKRQKDAQNADKKAADMLAEYERRKGILDTRLSELEKNGGAALAVLDAQQARLLGQQTRNDRAISEARNKLSSVTESLNTARNALTRAEQQLTQQKNTPDGKTIVSPEKFPGRSSTNHSIVVSGDPRFAGTIKITTSAVIDNRANLNYLLSHSGLDYKRNILNDRNPVVTEDVEGDKKIYNAEVAEWDKLRQRLLDARNKITSAESAVNSARNNLSARTNEQKHANDALNALLKEKENIRNQLSGINQKIAEEKRKQDELKATKDAINFTTEFLKSVSEKYGAKAEQLAREMAGQAKGKKIRNVEEALKTYEKYRADINKKINAKDRAAIAAALESVKLSDISSNLNRFSRGLGYAGKFTSLADWITEFGKAVRTENWRPLFVKTETIIAGNAATALVALVFSILTGSALGIIGYGLLMAVTGALIDESLVEKANKFWGI
modifications: Pheromone peptide from Staphylococcus aureus AgrDI attached to Colicin Ia
Q: How did the inhibition of growth [1] turn out when B5 was run?
A: did not inhibit the growth
